The values below come from patent US20230257372A1 (CHONG KUN DANG PHARMACEUTICAL CORP., priority 2020, published 2023).

pIC50: −log10 of the molar value. Where two headings read alike, the source gives them in different places. Bounds are passed on as bounds.

The target of one experiment is T1, human recombinant HDAC1 (Homo sapiens, UniProt Q13547).
T1 construct: purchased Enzo Life Science, Inc. BML-SE456
Put plainly: HDAC1 enzyme activity inhibition (HDAC Fluorimetric Drug Discovery Kit). In kind it is biochemical. Particulars: read-out: HDAC1. The essentials: (§1)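 Fluorescence from a Fluor de Lys developer step (30 minutes) reports residual deacetylation after a 60-minute, 30° C reaction of […] enzyme with 10 μM substrate and 5-fold compound dilutions.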

The target in a further experiment is T2, human recombinant HDAC6 (Homo sapiens, UniProt Q9UBN7).
T2 construct: purchased Calbiochem Inc. 382180
T2 sequence (Q9UBN7 1-1215): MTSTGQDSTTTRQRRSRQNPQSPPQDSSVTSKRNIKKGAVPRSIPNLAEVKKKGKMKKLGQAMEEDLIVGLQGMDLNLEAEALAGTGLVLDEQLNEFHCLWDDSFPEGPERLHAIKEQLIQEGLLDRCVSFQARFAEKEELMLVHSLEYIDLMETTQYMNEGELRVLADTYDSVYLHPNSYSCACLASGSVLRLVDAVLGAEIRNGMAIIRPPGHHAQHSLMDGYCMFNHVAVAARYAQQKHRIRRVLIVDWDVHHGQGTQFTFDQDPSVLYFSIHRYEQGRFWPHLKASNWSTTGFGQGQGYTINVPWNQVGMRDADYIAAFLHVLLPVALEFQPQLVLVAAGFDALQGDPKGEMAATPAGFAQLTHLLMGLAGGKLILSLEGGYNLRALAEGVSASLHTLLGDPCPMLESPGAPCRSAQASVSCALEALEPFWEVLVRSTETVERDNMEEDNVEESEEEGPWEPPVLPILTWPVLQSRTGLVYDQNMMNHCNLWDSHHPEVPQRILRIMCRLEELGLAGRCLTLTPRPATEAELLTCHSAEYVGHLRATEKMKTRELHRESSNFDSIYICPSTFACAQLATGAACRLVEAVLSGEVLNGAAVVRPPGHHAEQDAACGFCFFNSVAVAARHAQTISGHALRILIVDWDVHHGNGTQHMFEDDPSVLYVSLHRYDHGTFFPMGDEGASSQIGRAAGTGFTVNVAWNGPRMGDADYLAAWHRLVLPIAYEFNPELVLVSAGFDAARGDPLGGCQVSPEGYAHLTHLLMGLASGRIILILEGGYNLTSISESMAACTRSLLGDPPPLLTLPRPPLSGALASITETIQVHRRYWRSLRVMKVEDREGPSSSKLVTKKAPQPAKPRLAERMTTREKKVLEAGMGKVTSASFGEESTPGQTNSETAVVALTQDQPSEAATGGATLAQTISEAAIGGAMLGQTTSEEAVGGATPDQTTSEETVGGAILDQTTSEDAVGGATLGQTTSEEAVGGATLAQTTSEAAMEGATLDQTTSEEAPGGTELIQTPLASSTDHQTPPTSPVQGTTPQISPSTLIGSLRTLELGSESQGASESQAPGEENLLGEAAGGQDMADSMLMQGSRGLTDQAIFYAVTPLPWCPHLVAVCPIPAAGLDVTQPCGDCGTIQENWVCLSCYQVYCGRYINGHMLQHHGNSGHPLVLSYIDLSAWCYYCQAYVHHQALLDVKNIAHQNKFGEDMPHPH
Description: HDAC6 enzyme activity inhibition (HDAC Fluorimetric Drug Discovery Kit). The class given is biochemical. The method, boiled down:
as §1

Setting [1] is: human recombinant HDAC1, IC50 calculated with GraphPad Prism.
Where [2] appears, read: human recombinant HDAC6, IC50 calculated with GraphPad Prism.
Where [3] appears, read: human recombinant HDAC1, Fluor de Lys substrate, 30° C. 60 minutes.
Setting [4] is: human recombinant HDAC6, same protocol as HDAC1.

T1 sequence (Q13547 whole entry): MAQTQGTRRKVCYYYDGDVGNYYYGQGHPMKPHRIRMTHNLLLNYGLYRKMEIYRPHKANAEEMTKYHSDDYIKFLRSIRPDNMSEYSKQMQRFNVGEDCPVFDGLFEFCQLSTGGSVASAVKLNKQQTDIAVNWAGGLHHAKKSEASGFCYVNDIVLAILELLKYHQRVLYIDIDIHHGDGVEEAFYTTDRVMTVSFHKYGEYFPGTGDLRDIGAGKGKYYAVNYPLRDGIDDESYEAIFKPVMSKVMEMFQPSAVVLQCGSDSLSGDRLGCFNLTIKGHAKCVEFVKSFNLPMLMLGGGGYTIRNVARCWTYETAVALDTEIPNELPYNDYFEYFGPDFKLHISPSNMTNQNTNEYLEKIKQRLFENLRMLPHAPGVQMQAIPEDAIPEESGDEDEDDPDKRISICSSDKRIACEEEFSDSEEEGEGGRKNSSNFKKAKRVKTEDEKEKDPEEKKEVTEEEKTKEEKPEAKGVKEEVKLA

As for `CN(C)Cc1c(-c2ccccc2)nnn1Cc1ccc(-c2nnc(C(F)F)o2)cc1F` [Compound 4491, 1-(1-(4-(5-(difluoromethyl)-1,3,4-oxadiazol-2-yl)-2-fluorobenzyl)-4-phenyl-1H-1,2,3-triazol-5-yl)-N,N-dimethylmethanamine], the figures for the pIC50 at human recombinant HDAC1 (setting [1]) and on human recombinant HDAC6 (setting [2]) were under 4.30 and 6.94, respectively. Moreover, at human recombinant HDAC6 (HDAC1 IC50 / HDAC6 IC50), the “HDAC6 selectivity (fold)” value is reported as 433 fold.
On the same counts, the results for `FC(F)c1nnc(-c2ccc(Cn3cc(-c4ccc5[nH]ncc5c4)nn3)nc2)o1` [Compound 4343, 2-(6-((4-(1H-indazol-5-yl)-1H-1,2,3-triazol-1-yl)methyl)pyridin-3-yl)-5-(difluoromethyl)-1,3,4-oxadiazole] are under 4.30, 8.07 and 5882 fold.
In the case of `COC(=O)N1CC(c2cn(Cc3ccc(-c4nnc(C(F)F)o4)cn3)nn2)C1` [Compound 3959, Methyl 3-(1-((5-(5-(difluoromethyl)-1,3,4-oxadiazol-2-yl)pyridin-2-yl)methyl)-1H-1,2,3-triazol-4-yl)azetidin-1-carboxylate], the pIC50 is under 4.30 at human recombinant HDAC1 (setting [1]) and 6.62 on human recombinant HDAC6 (setting [2]). In addition, the “HDAC6 selectivity (fold)” value at human recombinant HDAC6 (HDAC1 IC50 / HDAC6 IC50) stood at 209 fold.
For `Fc1cc(-c2nnc(C(F)F)o2)cnc1Cn1cc(-c2ccccc2CN2CCCC2)nn1` [Compound 18823], the pIC50 at human recombinant HDAC1 (setting [3]) was under 4.30; at human recombinant HDAC6 (setting [4]) it was 6.42. Besides, at human recombinant HDAC6 (HDAC6 over HDAC1), the “HDAC6 selectivity (fold)” value was 131 fold.
Take `Fc1cc(-c2nnc(C(F)F)o2)ccc1Cn1cc(-c2ccc(F)c(N3CCNCC3)c2)nn1` [Compound 4397, 2-(difluoromethyl)-5-(3-fluoro-4-((4-(4-fluoro-3-(piperazin-1-yl)phenyl)-1H-1,2,3-triazol-1-yl)methyl)phenyl)-1,3,4-oxadiazole]: the pIC50 on human recombinant HDAC1 (setting [1]) is under 4.30; at human recombinant HDAC6 (setting [2]), 7.19. In addition, the “HDAC6 selectivity (fold)” value on human recombinant HDAC6 (HDAC1 IC50 / HDAC6 IC50) amounted to 766 fold.
Consider `Fc1cc(-c2nnc(C(F)F)o2)ccc1Cn1cc(-c2cccc(N3CCN(C4COC4)CC3)n2)nn1` [Compound 17365, 2-(difluoromethyl)-5-(3-fluoro-4-((4-(6-(4-(oxetan-3-yl)piperazin-1-yl)pyridin-2-yl)-1H-1,2,3-triazol-1-yl)methyl)phenyl)-1,3,4-oxadiazole], for which the pIC50 on human recombinant HDAC1 (setting [3]) is under 4.30; at human recombinant HDAC6 (setting [4]) it was 7.44. The “HDAC6 selectivity (fold)” value at human recombinant HDAC6 (HDAC6 over HDAC1) worked out at 1377 fold.
For the molecule `CCN1CCC(F)(c2cn(Cc3ccc(-c4nnc(C(F)F)o4)cn3)nn2)CC1` [Compound 4006, 2-(difluoromethyl)-5-(6-((4-(1-ethyl-4-fluoropiperidin-4-yl)-1H-1,2,3-triazol-1-yl)methyl)pyridin-3-yl)-1,3,4-oxadiazole], the pIC50 is under 4.30 at human recombinant HDAC1 (setting [1]) and 6.88 on human recombinant HDAC6 (setting [2]). The “HDAC6 selectivity (fold)” value at human recombinant HDAC6 (HDAC1 IC50 / HDAC6 IC50) is 375 fold.
On the same counts, the results for `CN1C[C@@H]2C[C@H]1CN2c1cccc(-c2cn(Cc3ccc(-c4nnc(C(F)F)o4)cc3)nn2)c1` [Compound 4320, 2-(difluoromethyl)-5-(4-((4-(3-((1S,4S)-5-methyl-2,5-diazabicyclo[2.2.1]heptan-2-yl)phenyl)-1H-1,2,3-triazol-1-yl)methyl)phenyl)-1,3,4-oxadiazole] are under 4.30, 7.16 and 719 fold.
For the molecule `CCN1CCN(c2cc(-c3cn(Cc4ccc(-c5nnc(C(F)F)o5)cc4F)nn3)ccn2)CC1` [Compound 4634, 2-(difluoromethyl)-5-(4-((4-(2-(4-ethylpiperazin-1-yl)pyridin-4-yl)-1H-1,2,3-triazol-1-yl)methyl)-3-fluorophenyl)-1,3,4-oxadiazole], the pIC50 was under 4.30 at human recombinant HDAC1 (setting [3]) and 7.62 at human recombinant HDAC6 (setting [4]). The “HDAC6 selectivity (fold)” value on human recombinant HDAC6 (HDAC6 over HDAC1) is 2074 fold.
Regarding `O=c1ccc(-c2cn(Cc3ccc(-c4nnc(C(F)F)o4)cn3)nn2)c[nH]1` [Compound 3845, 5-(1-((5-(5-(difluoromethyl)-1,3,4-oxadiazol-2-yl)pyridin-2-yl)methyl)-1H-1,2,3-triazol-4-yl)pyridin-2(1H)-one], the pIC50 at human recombinant HDAC1 (setting [1]) was under 4.30; at human recombinant HDAC6 (setting [2]) it was 7.79. Further, on human recombinant HDAC6 (HDAC1 IC50 / HDAC6 IC50), the “HDAC6 selectivity (fold)” value is recorded as 3105 fold.
Turning to `CN1CCC(c2ccc(-c3cn(Cc4ncc(-c5nnc(C(F)F)o5)cc4F)nn3)cc2)CC1` [Compound 19087, 2-(difluoromethyl)-5-(5-fluoro-6-((4-(4-(1-methylpiperidin-4-yl)phenyl)-1H-1,2,3-triazol-1-yl)methyl)pyridin-3-yl)-1,3,4-oxadiazole], the pIC50 on human recombinant HDAC1 (setting [3]) was under 4.30; at human recombinant HDAC6 (setting [4]) it was 7.11. The “HDAC6 selectivity (fold)” value on human recombinant HDAC6 (HDAC6 over HDAC1) was determined as 650 fold.
For the molecule `CC(C)(C)OC(=O)NC1(C(=O)Nc2cccc(-c3cn(Cc4ccc(-c5nnc(C(F)F)o5)cn4)nn3)c2)CCC1` [Compound 4496, tert-butyl (1-((3-(1-((5-(5-(difluoromethyl)-1,3,4-oxadiazol-2-yl)pyridin-2-yl)methyl)-1H-1,2,3-triazol-4-yl)phenyl)carbamoyl)cyclobutyl)carbamate], the pIC50 on human recombinant HDAC1 (setting [1]) is under 4.30; at human recombinant HDAC6 (setting [2]), 7.83. Also, at human recombinant HDAC6 (HDAC1 IC50 / HDAC6 IC50), the “HDAC6 selectivity (fold)” value is 3355 fold.
The matching figures for `Fc1ccc(-c2cn(Cc3ccc(-c4nnc(C(F)F)o4)cn3)nn2)cc1F` [Compound 3737, 2-(difluoromethyl)-5-(6-((4-(3,4-difluorophenyl)-1H-1,2,3-triazol-1-yl)methyl)pyridin-3-yl)-1,3,4-oxadiazole]: under 4.30, 7.32 and 1043 fold.
On to `CN(C)Cc1cccc(-c2cn(Cc3ncc(-c4nnc(C(F)F)o4)cc3F)nn2)c1` [Compound 18457, 1-(3-(1-((5-(5-(difluoromethyl)-1,3,4-oxadiazol-2-yl)-3-fluoropyridin-2-yl)methyl)-1H-1,2,3-triazol-4-yl)phenyl)-N,N-dimethylmethanamine], for which the pIC50 on human recombinant HDAC1 (setting [3]) was under 4.30; on human recombinant HDAC6 (setting [4]), 7.05. For the same molecule, on human recombinant HDAC6 (HDAC6 over HDAC1), the “HDAC6 selectivity (fold)” value was found to be 554 fold.
Regarding `CC(C)(C)OC(=O)N1CCC(c2cccc(-c3cn(Cc4ccc(-c5nnc(C(F)F)o5)cn4)nn3)c2)CC1` [Compound 4001, tert-butyl 4-(3-(1-((5-(5-(difluoromethyl)-1,3,4-oxadiazol-2-yl)pyridin-2-yl)methyl)-1H-1,2,3-triazol-4-yl)phenyl)piperidin-1-carboxylate], the pIC50 was under 4.30 on human recombinant HDAC1 (setting [1]) and 6.77 at human recombinant HDAC6 (setting [2]). Further, at human recombinant HDAC6 (HDAC1 IC50 / HDAC6 IC50), the “HDAC6 selectivity (fold)” value was 296 fold.
As to `CN1C[C@@H]2C[C@H]1CN2c1cc(-c2cn(Cc3ccc(-c4nnc(C(F)F)o4)cc3F)nn2)ccc1F` [Compound 4430, 2-(difluoromethyl)-5-(3-fluoro-4-((4-(4-fluoro-3-((1S,4S)-5-methyl-2,5-diazabicyclo[2.2.1]heptan-2-yl)phenyl)-1H-1,2,3-triazol-1-yl)methyl)phenyl)-1,3,4-oxadiazole], the pIC50 at human recombinant HDAC1 (setting [1]) is under 4.30; on human recombinant HDAC6 (setting [2]), 6.85. Moreover, the “HDAC6 selectivity (fold)” value on human recombinant HDAC6 (HDAC1 IC50 / HDAC6 IC50) is 351 fold.
For the molecule `Fc1cc(-c2nnc(C(F)F)o2)ccc1Cn1cc(-c2cccc(N3CCN(C4CCC4)CC3)n2)nn1` [Compound 17364, 2-(4-((4-(6-(4-cyclobutylpiperazin-1-yl)pyridin-2-yl)-1H-1,2,3-triazol-1-yl)methyl)-3-fluorophenyl)-5-(difluoromethyl)-1,3,4-oxadiazole], the figures for the pIC50 at human recombinant HDAC1 (setting [3]) and at human recombinant HDAC6 (setting [4]) were under 4.30 and 7.29, respectively. The “HDAC6 selectivity (fold)” value on human recombinant HDAC6 (HDAC6 over HDAC1) was 976 fold.
On to `Fc1cccnc1-c1cn(Cc2ccc(-c3nnc(C(F)F)o3)cn2)nn1` [Compound 4178], for which the pIC50 on human recombinant HDAC1 (setting [1]) is under 4.30; on human recombinant HDAC6 (setting [2]) it was 7.25. Moreover, on human recombinant HDAC6 (HDAC1 IC50 / HDAC6 IC50), the “HDAC6 selectivity (fold)” value worked out at 896 fold.
For the molecule `FC(F)c1nnc(-c2ccc(Cn3cc(-c4ccccc4N4CCOCC4)nn3)nc2)o1` [Compound 4104, 4-(2-(1-((5-(5-(difluoromethyl)-1,3,4-oxadiazol-2-yl)pyridin-2-yl)methyl)-1H-1,2,3-triazol-4-yl)phenyl)morpholin], the values for the pIC50 at human recombinant HDAC1 (setting [1]) and on human recombinant HDAC6 (setting [2]) were 4.48 and 7.18, respectively. In addition, on human recombinant HDAC6 (HDAC1 IC50 / HDAC6 IC50), the “HDAC6 selectivity (fold)” value is 500 fold.
